Results taken from patent US7098013B2, “Polypeptide having α-isomaltosyl-transferase activity” (Kabushiki Kaisha Hayashibara Seibutsu Kagaku Kenkyujo, priority 2000, dated 2006).

Experiments:
[1] = system: α-isomaltosyl-transferring enzyme; assay: Action of the purified N75 enzyme on saccharide substrates (saccharide composition by HPLC); assay type: biochemical, Bacillus globisporus N75; settings: for yield of cyclotetrasaccharide in dry basis from the substrate: summary of Table 6
Experimental: An aqueous solution containing 10 mM of glucose, 6-O-α-glucosylglucose (isomaltose), 6^2-O-α-glucosylmaltose (panose), 6^3-O-α-glucosylmaltotriose (isomaltosylmaltose), 6^4-O-αglucosylmaltotetraose, or 6^5-O-α-glucosylmaltopentaose was prepared as substrate solution. To each of the above substrate solutions was added two units/mM-substrate of the purified α-isomaltosyl-transferring enzyme specimen obtained in Experiment 3-2 and incubated at 30° C. and at pH 6.0 for 12 hours. After deionizing by conventional method, the resulting reaction solutions were measured for saccharide composition on HPLC, disclosed in Experiment 2-1.

[2] = system: α-isomaltosyl-transferring enzyme; assay: Action of the purified C11 enzyme on saccharide substrates (saccharide composition by HPLC); assay type: biochemical, Bacillus globisporus C11; settings: for yield of cyclotetrasaccharide in dry basis from the substrate: summary of Table 3
Experimental: An aqueous solution containing 10 mM of glucose, 6-O-α-glucosylglucose (isomaltose), 6^2-O-α-glucosylmaltose (panose), 6^3-O-α-glucosylmaltotriose (isomaltosylmaltose), 6^4-O-α-glucosylmaltotetraose, or 6^5-O-α-glucosylmaltopentaose was prepared as substrate solution. To each of the above substrate solution was added two units/mM-substrate of the purified α-isomaltosyl-transferring enzyme specimen obtained in Experiment 1-2 and incubated at 30° C. and at pH 6.0 for 12 hours. After deionizing by conventional method, the resulting reaction solutions were measured for saccharide composition on HPLC using “MCI GEL CK04SS”, a column commercialized by Mitsubishi Chemical Industries, Ltd., Tokyo, Japan, at a column temperature of 80° C. and a flow rate of 0.4 ml/min of water, and using a detector “RI-8012”, a differential refractometer commercialized by Tosho Corporation, Tokyo, Japan.

Bacillus globisporus C11 = assay: Utilization of carbon source and acid formation, strain C11; assay type: cell-based; design: key: The symbol “+” means yes or positive; settings: carbon source
Experimental: (§1) Physiological Properties> • (1) VP-test: Negative • (2) Indole formation: Negative • (3) Gas formation from nitric acid: Positive • (4) Hydrolysis of starch: Positive • (5) Formation of pigment: Forming no soluble pigment • (6) Urease: Positive • (7) Oxidase: Positive • (8) Catalase: Positive • (9) Growth conditions: Growing at a pH of 5.5–9.0 and a temperature of 10–35° C. • (10) Oxygen requirement: Aerobic • (11) Utilization of carbon source and acid formation

Bacillus globisporus N75 = assay: Utilization of carbon source and acid formation, strain N75; assay type: cell-based; design: key: The symbol “+” means yes or positive; settings: carbon source
Experimental: as §1

[3] = N75 enzyme 2 units/mM-substrate, 10 mM substrate, 30° C., pH 6.0, 12 hours
[4] = C11 enzyme 2 units/mM-substrate, 10 mM substrate, 30° C., pH 6.0, 12 hours

Row | Compound | Content of the substrate itself (remaining) in the reaction mixture [1, 3] [%] | Content of the substrate itself (remaining) in the reaction mixture [2, 4] [%] | Content of Cyclotetrasaccharide in the reaction mixture [1, 3] [%] | Content of Isomaltose in the reaction mixture [1, 3] [%] | Content of others in the reaction mixture [1, 3] [%] | yield of cyclotetrasaccharide in dry basis from the substrate ([1]; N75 enzyme) [%] | Content of Cyclotetrasaccharide in the reaction mixture [2, 4] [%] | Content of Isomaltose in the reaction mixture [2, 4] [%] | Content of others in the reaction mixture [2, 4] [%] | yield of cyclotetrasaccharide in dry basis from the substrate ([2]; C11 enzyme) [%] | Acid formation (Bacillus globisporus C11) | Utilization (Bacillus globisporus C11) | Acid formation (Bacillus globisporus N75) | Utilization (Bacillus globisporus N75) | also measured
1 | O=C[C@H](O)[C@@H](O)[C@H](O)[C@H](O)CO[C@H]1O[C@H](CO)[C@@H](O)[C@H](O)[C@H]1O [6-O-α-Glucosylglucose, 6-O-α-glucosylglucose] | 100 | 100 |  |  |  |  |  |  |  |  |  |  |  |  | product formation from the substrate ([1]; N75 enzyme): No product was detected; product formation from the substrate ([2]; C11 enzyme): No product was detected
2 | OCC(O)CO [Glycerol] |  |  |  |  |  |  |  |  |  |  | + | + | + | + | 
3 | OC[C@H]1O[C@@H](O[C@H]2[C@H](O)[C@@H](O)C(O)O[C@@H]2CO)[C@H](O)[C@@H](O)[C@H]1O (some centres unmarked) [Lactose] |  |  |  |  |  |  |  |  |  |  | + | + | + | + | 
4 | OC[C@H]1O[C@@](CO)(O[C@H]2O[C@H](CO)[C@@H](O)[C@H](O)[C@H]2O)[C@@H](O)[C@@H]1O [Sucrose] |  |  |  |  |  |  |  |  |  |  | + | + | + | + | 

The next lines start with results.

Row | Content of the substrate itself (remaining) in the reaction mixture [1, 3] [%] | Content of the substrate itself (remaining) in the reaction mixture [2, 4] [%] | Content of Cyclotetrasaccharide in the reaction mixture [1, 3] [%] | Content of Isomaltose in the reaction mixture [1, 3] [%] | Content of others in the reaction mixture [1, 3] [%] | yield of cyclotetrasaccharide in dry basis from the substrate ([1]; N75 enzyme) [%] | Content of Cyclotetrasaccharide in the reaction mixture [2, 4] [%] | Content of Isomaltose in the reaction mixture [2, 4] [%] | Content of others in the reaction mixture [2, 4] [%] | yield of cyclotetrasaccharide in dry basis from the substrate ([2]; C11 enzyme) [%] | Compound | Acid formation (Bacillus globisporus C11) | Utilization (Bacillus globisporus C11) | Acid formation (Bacillus globisporus N75) | Utilization (Bacillus globisporus N75) | also measured
5 | 4.4 | 4.6 | 43.2 | 2.0 | 9.7 | 43.2 | 43.5 | 2.1 | 11.0 | 43.5 | OC[C@H]1O[C@H](OC[C@H]2O[C@H](O[C@H]3[C@H](O)[C@@H](O)C(O)O[C@@H]3CO)[C@H](O)[C@@H](O)[C@@H]2O)[C@H](O)[C@@H](O)[C@@H]1O (stereo partly drawn) [6^2-O-α-Glucosylmaltose, 6^2-O-α-glucosylmaltose] |  |  |  |  | Content of Glucose in the reaction mixture [1, 3]: 31.8%; Content of Isomaltosylpanose in the reaction mixture [1, 3]: 6.5%; Content of Isomaltosypanoside in the reaction mixture [1, 3]: 2.4%; Content of Glucose in the reaction mixture [2, 4]: 32.2%; Content of Isomaltosylpanose in the reaction mixture [2, 4]: 4.8%; Content of Isomaltosypanoside in the reaction mixture [2, 4]: 1.8%
6 | 4.5 | 4.2 | 30.9 | 1.9 | 12.4 | 30.9 | 30.8 | 2.0 | 12.4 | 30.8 | OC[C@H]1O[C@H](OC[C@H]2O[C@H](O[C@H]3[C@H](O)[C@@H](O)[C@@H](O[C@H]4[C@H](O)[C@@H](O)C(O)O[C@@H]4CO)O[C@@H]3CO)[C@H](O)[C@@H](O)[C@@H]2O)[C@H](O)[C@@H](O)[C@@H]1O (stereo partly drawn) [6^3-O-α-Glucosylmaltotriose, 6^3-O-α-glucosylmaltotriose] |  |  |  |  | Content of Maltose in the reaction mixture [1, 3]: 50.3%; Content of Maltose in the reaction mixture [2, 4]: 50.6%
7 | 3.2 | 3.4 | 25.8 | 1.5 | 8.6 | 25.8 | 25.6 | 1.9 | 8.4 | 25.6 | OC[C@H]1O[C@H](OC[C@H]2O[C@H](O[C@H]3[C@H](O)[C@@H](O)[C@@H](O[C@H]4[C@H](O)[C@@H](O)[C@@H](O[C@H]5[C@H](O)[C@@H](O)C(O)O[C@@H]5CO)O[C@@H]4CO)O[C@@H]3CO)[C@H](O)[C@@H](O)[C@@H]2O)[C@H](O)[C@@H](O)[C@@H]1O (stereo partly drawn) [6^4-O-α-Glucosylmaltotetraose, 6^4-O-α-glucosylmaltotetraose] |  |  |  |  | Content of Maltotriose in the reaction mixture [1, 3]: 60.9%; Content of Maltotriose in the reaction mixture [2, 4]: 60.7%
8 | 4.2 | 4.3 | 18.7 | 1.4 | 9.1 | 18.7 | 18.2 | 1.6 | 9.4 | 18.2 | OC[C@H]1O[C@H](OC[C@H]2O[C@H](O[C@H]3[C@H](O)[C@@H](O)[C@@H](O[C@H]4[C@H](O)[C@@H](O)[C@@H](O[C@H]5[C@H](O)[C@@H](O)[C@@H](O[C@H]6[C@H](O)[C@@H](O)C(O)O[C@@H]6CO)O[C@@H]5CO)O[C@@H]4CO)O[C@@H]3CO)[C@H](O)[C@@H](O)[C@@H]2O)[C@H](O)[C@@H](O)[C@@H]1O (stereo partly drawn) [6^5-O-α-Glucosylmaltopentaose, 6^5-O-α-glucosylmaltopentaose] |  |  |  |  | Content of Maltotetraose in the reaction mixture [1, 3]: 66.6%; Content of Maltotetraose in the reaction mixture [2, 4]: 66.5%
